In patent US7744867B2, “PTPase inhibitors and method of using same” (The Cleveland Clinic Foundation, priority 2001, dated 2010):

Legend:
[1] = tested on: NB4 cells; assay: Differentiation, proliferation and cell cycle of AML cell line; assay type: cell-based, human
Description: Cell lines, cell culture, and cell proliferation assay. The NB4 cell line was a gift from Dr. Dan Lindner of CCF. HL60 and U937 cell lines were purchased from ATCC. These human AML cell lines were maintained in RPMI 1640 medium supplemented with 10% fetal calf serum (FCS). For cell proliferation assays, cells were cultured at 37° C. in 10% FCS medium containing various amounts of sodium stibogluconate for 6 days. The cell numbers in the cultures were determined by an MTT assay as described previously.
Differentiation of AML cell lines was assessed by their ability to produce superoxide as measured by reduction of NBT to formazan and by analysis of expression of CD11b surface marker by flow cytometry. For NBT reduction, each cell suspension was mixed with an equal volume of solution containing 1 mg/ml of NBT (Sigma) and 2.5 μg/ml of TPA for 30 minutes at 37° C. After incubation, cells containing the purple formazan deposits and cells devoid of NBT-reducing activity (white cells) in each sample were determined by counting 200 cells under microscope. We expressed the data as percentage of the following ratio: purple cells/purple+white cells. For analysis of cell surface antigens, cells were exposed to phycoerythrin (PE)−conjugated murine anti-human CD11b (DAKO corp, Carpinteria, Calif.). Analysis of fluorescence was performed on a FACScan flow cytometer (Beckton Dickinson, Mountain View, Calif.). The cell cycle was analyzed by flow cytometry after 3 days of culture of NB4 cells in the absence or presence of sodium stibogluconate (250 μg/ml) or ATRA (1 μM). Briefly, the cells were fixed in cold ethanol and incubated for 30 minutes at 4° C. in the dark with a solution of […] propidium iodide, 1 mg/ml RNase and 0.1% NP-40. Analysis was performed immediately after staining using the CELLFIT program (Becton Dickinson, Mountain View, Calif.).

[2] = tested on: DU145 cells (Prostate cancer); assay: Growth inhibition of human tumor cell lines (MTT); assay type: cell-based
Source text: (§1) FIG. 9 illustrates growth inhibition of human cell lines of non-hematopoietic malignancies by sodium stibogluconate and/or IFNα. Percentage of growth inhibition of WM9 (A), DU145 (B), MDA231 (C) and WiT49-N1 (D) in the absence or presence of various amounts of sodium stibogluconate and/or IFNα (1,000 u/ml) in day 6 cultures as measured by MTT assays.

[3] = tested on: MDA231 cells (Breast cancer); assay: Growth inhibition of human tumor cell lines (MTT); assay type: cell-based
Source text: as §1

[4] = tested on: WM9 cells (Melanoma); assay: Growth inhibition of human tumor cell lines (MTT); assay type: cell-based
Source text: as §1
FIG. 10 illustrates sodium stibogluconate augments both IFNα- and IFNβ-induced growth inhibition of WM9 cells. Percentage of growth inhibition of WM9 cells in the absence or presence of various amounts of sodium stibogluconate, IFNα and IFNβ in day 6 cultures as measured by MTT assays. The data illustrates that sodium seems to interact with IFNα and IFNβ in a synergistic manner in growth inhibition of WM9 cells. Data from MTT antiproliferative assays was expressed as percent control growth (PCG) of treated cells, compared to untreated cells (100%). Median effect analysis (inset graphs), similar to isobol analysis, defined drug interaction in the IFNα+sodium stibogluconate and the IFNβ+sodium stibogluconate combinations as synergistic at all doses tested, characterized by a combination index (CI) of less than 1. Additivity is indicated by CI=1, and antagonism occurs when CI>1. Fraction affected (fa)=(100−PCG)/100.
Drug Interaction Analysis. Median effect analysis, which provides the most general form of studying the interactions between drugs, was utilized to analyze the interaction between sodium stibogluconate and IFNα or IFNβ. Since details regarding the mode of IFN and sodium stibogluconate interaction are not fully understood, and whether or not they act in a mutually exclusive fashion, we chose the most general analysis available. Dose response curves were generated for each drug alone, and also the combinations. Median effect plots were generated, which determined m and Dm values for IFN alone, sodium stibogluconate alone, and the combination. The combination index (CI) was determined and plotted vs. fraction affected (FA). Data were analyzed in both modes, mutually exclusive and mutually nonexclusive. […]

[5] = tested on: DS cells (lymphoma); assay: Growth inhibition of human tumor cell lines (MTT); assay type: cell-based; conditions: day 3; IFNα 1,000 u/ml
Description: FIG. 8 illustrates growth inhibition of human cell lines of hematopoietic malignancies by sodium stibogluconate and/or IFNα: A and B. Growth of DS and DR cells cultured in the absence or presence of various amounts of sodium stibogluconate and/or IFNα (1,000 u/ml) for 3 days was measured by MTT assays; C. Percentage of growth inhibition of DR cells calculated from data in B; D. Percentage of growth inhibition of DR cells by IFNα (1,000 u/ml) and various amounts of sodium stibogluconate in day 6 cultures measured by MTT assays; E. Percentage of growth inhibition of U266 cells by IFNα (1,000 u/ml) and various amounts of sodium stibogluconate in day 6 cultures as measured by MTT assays.

[6] = tested on: Melanomas; conditions: melanoma patients; cited from earlier work
[7] = tested on: WiT49-N1 cells (Wilms tumor); assay: Growth inhibition of human tumor cell lines (MTT); assay type: cell-based; conditions: SS 12.5 μg/ml, IFNα 1,000 u/ml, alone or combined
Source text: as §1

[8] = tested on: 5637 cells (Blader carcinoma); assay: Growth inhibition of human tumor cell lines; assay type: cell-based; conditions: SS 12.5 μg/ml, IFNα 1,000 u/ml, alone or combined

Compound | proliferation of NB4 cells ([1]; 12.5-400 μg/ml, 6 days) | cell cycle arrest (DNA content analysis) ([1]; 3 days, sodium stibogluconate 250 μg/ml, ATRA 1 μM) | expression levels of PML/RARα chimeric protein ([1]; NB4 cells) | NB4 cell differentiation (NBT positive cells) ([1]; dose- and time-dependent) | cell killing as a single agent ([2]; 50 μg/ml and 100 μg/ml, day 6 culture) | cell killing as a single agent ([3]; MDA231, 50 μg/ml and 100 μg/ml, day 6 culture) | cell killing as a single agent ([4]; WM9, 50 μg/ml and 100 μg/ml, day 6 culture) | activity against DS cells [5] | response rates [6] [%] | % of growth inhibition by day 6 (±s.d.) ([2]; SS 12.5 μg/ml, IFNα 1,000 u/ml, alone or combined) | % of growth inhibition by day 6 (±s.d.) ([3]; MDA231, SS 12.5 μg/ml, IFNα 1,000 u/ml, alone or combined) | growth inhibition of MDA231 breast cancer cells ([3]; drug at 25 μg/ml, agents individually or in combination) [%] | % of growth inhibition by day 6 (±s.d.) [7] | % of growth inhibition by day 6 (±s.d.) ([4]; WM9, SS 12.5 μg/ml, IFNα 1,000 u/ml, alone or combined) | growth inhibition of WM-9 melanoma cells ([4]; drug at 25-100 μg/ml, agents individually or in combination) [%] | % of growth inhibition by day 6 (±s.d.) [8]
O.O.O.O.O.O.O.O.O.O=C([O-])[C@@H]1[O][Sb]2([O-])([O][Sb]34([OH])[O][C@H]([C@H](O)CO)[C@H]([O]3)[C@H](C(=O)[O-])[O]4)[O][C@H]([C@H](O)CO)[C@@H]1[O]2.[Na+].[Na+].[Na+] [sodium stibogluconate] | markedly inhibited | growth arrest at S phase | no detectable effect | induced | killed all cells | killed all cells | killed all cells | modest activity | – | – | – | – | – | – | – | –
IFNα | – | – | – | – | – | – | – | almost completely eliminated | 15 | 70 (5) % | 79 (2) % | 79 | 22 (11) % | 58 (2) % | 58 | 28 (17) %
